Data as given in patent US10463658B2, “Method of inhibiting FLT3 kinase” (AROG Pharmaceuticals, LLC, priority 2013, dated 2019).
Positions count from the first letter of the chain named.

Tests used:
FLT3 autoinhibited = target: T1, FLT3 autoinhibited (Homo sapiens, UniProt P36888); experiment: KINOMEscan KdElect competitive binding assay, autoinhibited FLT3; settings: tosylate salt; average Kd; read-out: Binding Constant (Kd), FLT3 autoinhibited
T1 construct: host or cells: E. coli BL21-derived host (T7 phage) or HEK-293
T1 sequence (P36888 564-993 limits assumed): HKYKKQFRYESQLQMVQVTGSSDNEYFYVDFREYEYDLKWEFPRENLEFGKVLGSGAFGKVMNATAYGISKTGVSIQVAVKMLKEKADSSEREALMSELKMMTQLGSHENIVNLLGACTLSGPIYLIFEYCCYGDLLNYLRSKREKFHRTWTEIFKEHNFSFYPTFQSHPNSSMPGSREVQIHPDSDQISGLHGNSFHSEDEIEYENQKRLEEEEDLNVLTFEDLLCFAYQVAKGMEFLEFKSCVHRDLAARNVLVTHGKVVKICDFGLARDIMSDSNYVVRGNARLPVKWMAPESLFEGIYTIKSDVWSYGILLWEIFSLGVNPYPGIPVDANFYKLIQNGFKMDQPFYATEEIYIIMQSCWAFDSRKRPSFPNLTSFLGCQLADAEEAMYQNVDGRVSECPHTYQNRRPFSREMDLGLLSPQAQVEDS
Excerpt: (§1) Competitive binding assay.
(§2) The lysates were then centrifuged and filtered.

FLT3 D835H = target: T2, FLT3 D835H (Homo sapiens, UniProt P36888, D835H); experiment: KINOMEscan KdElect competitive binding assay, FLT3 D835H; settings: tosylate salt
T2 construct: host or cells: E. coli BL21-derived host (T7 phage) or HEK-293
T2 sequence (P36888 610-943 D835H limits assumed): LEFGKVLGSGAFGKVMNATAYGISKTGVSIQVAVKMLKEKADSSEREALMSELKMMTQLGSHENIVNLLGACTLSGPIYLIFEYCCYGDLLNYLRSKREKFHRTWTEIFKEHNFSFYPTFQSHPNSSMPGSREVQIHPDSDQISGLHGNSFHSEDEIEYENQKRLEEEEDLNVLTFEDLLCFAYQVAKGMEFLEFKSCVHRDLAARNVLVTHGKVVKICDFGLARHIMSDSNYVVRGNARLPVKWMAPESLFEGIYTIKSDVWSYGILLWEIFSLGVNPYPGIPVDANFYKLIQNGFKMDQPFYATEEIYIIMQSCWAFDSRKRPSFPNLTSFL
Excerpt: as §1, §2

FLT3 N841I = target: T3, FLT3 N841I (Homo sapiens, UniProt P36888, N841I); experiment: KINOMEscan KdElect competitive binding assay, FLT3 N841I; settings: tosylate salt; read-out: Binding Constant (Kd), FLT3 N841I
T3 construct: host or cells: E. coli BL21-derived host (T7 phage) or HEK-293
T3 sequence (P36888 610-943 N841I limits assumed): T2 sequence (P36888 610-943 D835H limits assumed) with H226D, N232I
Excerpt: as §1, §2

FLT3 R834Q = target: T4, FLT3 R834Q (Homo sapiens, UniProt P36888, R834Q); experiment: KINOMEscan KdElect competitive binding assay, FLT3 R834Q; settings: tosylate salt; read-out: Binding Constant (Kd), FLT3 R834Q
T4 construct: host or cells: E. coli BL21-derived host (T7 phage) or HEK-293
T4 sequence (P36888 610-943 R834Q limits assumed): T2 sequence (P36888 610-943 D835H limits assumed) with R225Q, H226D
Excerpt: as §1, §2

FLT3 (ITD, F691I) = target: T5, FLT3 (ITD, F691I) (Homo sapiens, UniProt P36888); experiment: KINOMEscan KdElect competitive binding assay, dual mutant FLT3 (ITD, F691I); settings: tosylate salt; read-out: Kd, FLT3 (ITD, F691I) double mutant
T5 construct: fused on or other part: DNA tag / T7 phage display tag for qPCR detection
Excerpt: as §1, §2

FLT3 ITD = target: T6, FLT3 ITD (Homo sapiens, UniProt P36888); settings: read-out: Binding Constant (Kd), FLT3 ITD; CP-673,451 as tosylate salt
T6 sequence (P36888 1-993): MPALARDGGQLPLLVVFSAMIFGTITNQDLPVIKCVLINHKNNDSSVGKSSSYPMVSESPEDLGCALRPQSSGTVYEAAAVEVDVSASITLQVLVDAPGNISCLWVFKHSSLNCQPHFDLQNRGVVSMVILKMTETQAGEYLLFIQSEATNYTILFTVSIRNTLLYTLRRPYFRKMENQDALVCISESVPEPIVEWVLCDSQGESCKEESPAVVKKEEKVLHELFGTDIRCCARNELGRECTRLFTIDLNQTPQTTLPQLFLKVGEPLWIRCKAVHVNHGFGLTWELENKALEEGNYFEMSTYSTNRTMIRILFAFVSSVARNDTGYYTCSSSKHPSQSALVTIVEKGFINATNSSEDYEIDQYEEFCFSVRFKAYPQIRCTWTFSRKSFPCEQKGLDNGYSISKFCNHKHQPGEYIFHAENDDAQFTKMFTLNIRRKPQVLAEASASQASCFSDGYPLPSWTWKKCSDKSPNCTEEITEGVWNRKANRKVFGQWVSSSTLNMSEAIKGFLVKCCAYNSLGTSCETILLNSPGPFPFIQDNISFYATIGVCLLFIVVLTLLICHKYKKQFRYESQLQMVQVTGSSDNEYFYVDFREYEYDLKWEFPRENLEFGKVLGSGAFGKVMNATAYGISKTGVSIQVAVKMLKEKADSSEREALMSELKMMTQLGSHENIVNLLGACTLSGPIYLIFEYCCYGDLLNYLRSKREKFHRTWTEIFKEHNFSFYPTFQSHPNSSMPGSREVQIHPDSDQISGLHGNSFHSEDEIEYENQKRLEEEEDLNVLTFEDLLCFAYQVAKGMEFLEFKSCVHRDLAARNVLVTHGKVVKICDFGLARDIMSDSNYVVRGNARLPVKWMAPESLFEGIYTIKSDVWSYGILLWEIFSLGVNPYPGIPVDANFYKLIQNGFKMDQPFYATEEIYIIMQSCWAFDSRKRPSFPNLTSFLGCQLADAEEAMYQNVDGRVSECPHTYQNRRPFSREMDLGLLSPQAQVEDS

- Kd (FLT3 autoinhibited): 18 nM
- Kd (FLT3 D835H): 0.16 nM
- Kd (FLT3 N841I): 0.39 nM
- Kd (FLT3 R834Q): 0.65 nM
- Kd (FLT3 (ITD, F691I)): 0.18 nM
- Kd (FLT3 ITD): 0.25 nM
Structure (SMILES): COCCOc1ccc2c(c1)ncn2-c1ccc2cccc(N3CCC(N)CC3)c2n1 [CP-673,451]
